This test addresses recombinant Mcl-1 (residues 172-327) (Homo sapiens (Human), UniProt Q07820). Description: Fluorescence polarization anisotropy competition assay (FITC-Bak or FITC-Bim BH3 peptide) with Mcl-1. Type of test: binding. The note with it: for Ki: Table 2, FITC-Bak or FITC-Bim peptide competition, Ki converted from IC50, read-out: Ki for Inhibition of Mcl-1. Background: Polarisation of emitted light reports the rotation of a fluorescent probe.

Here are results for 26 molecules from patent US10533010B2, “Substituted indole Mcl-1 inhibitors” (Vanderbilt University, priority 2014, dated 2020).

pKi: −log10 of the molar value. Like-named read-outs stand apart in the source and are kept apart here. Bounds are passed on as bounds.

Sequence of recombinant Mcl-1 (residues 172-327) (Q07820 172-327): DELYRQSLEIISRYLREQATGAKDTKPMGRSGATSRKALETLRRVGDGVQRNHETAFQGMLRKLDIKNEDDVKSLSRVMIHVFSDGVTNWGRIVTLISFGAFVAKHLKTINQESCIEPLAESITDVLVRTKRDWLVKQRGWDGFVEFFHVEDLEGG

The term Ki denotes the dissociation constant of the complex between target and ligand, obtained from inhibition or displacement. Consider `Cc1cc(OCCCc2c3n(c4c(-c5c(C)nn(C)c5C)c(Cl)ccc24)C[C@H](C)N(Cc2ccc(C(=O)O)o2)C3=O)cc(C)c1Cl` [I-138, (S)-5-((7-chloro-10-(3-(4-chloro-3,5-dimethylphenoxy)propyl)-3-methyl-1-oxo-6-(1,3,5-trimethyl-1H-pyrazol-4-yl)-3,4-dihydropyrazino[1,2-a]indol-2(1H)-yl)methyl)furan-2-carboxylic acid], for which the Ki (Ki bins given in nM) is below 50 nM.
For `Cc1cc(OCCCc2c3n(c4c(-c5c(C)nn(C)c5C)c(Cl)ccc24)CCCN(c2nn(C)c4cc(C(=O)O)ccc24)C3=O)cc(C)c1Cl` [I-375, 3-(8-chloro-11-(3-(4-chloro-3,5-dimethylphenoxy)propyl)-1-oxo-7-(1,3,5-trimethyl-1H-pyrazol-4-yl)-4,5-dihydro-1H-[1,4]diazepino[1,2-a]indol-2(3H)-yl)-1-methyl-1H-indazole-6-carboxylic acid], where the note is “Ki bins given in nM”, the Ki is below 50 nM.
Regarding `Cc1cc(OCCCc2c(C(=O)NCC(=O)O)[nH]c3c(-c4c(C)nn(C)c4C)cccc23)cc(C)c1Cl` [I-286, (3-(3-(4-chloro-3,5-dimethylphenoxy)propyl)-7-(1,3,5-trimethyl-1H-pyrazol-4-yl)-1H-indole-2-carbonyl)glycine], the Ki (Ki bins given in nM) was below 50 nM.
Consider `Cc1cc(OCCCc2c3n(c4c(-c5c(C)nn(C)c5C)cccc24)CCCN(Cc2cc(C(=O)O)n(Cc4ccccc4)c2)C3=O)cc(C)c1Cl` [I-77, 1-benzyl-4-((1-(3-(4-chloro-3,5-dimethylphenoxy)propyl)-1-oxo-7-(1,3,5-trimethyl-1H-pyrazol-4-yl)-4,5-dihydro-1H-[1,4]diazepino[1,2-a]indol-2(3H)-yl)methyl)-1H-pyrrole-2-carboxylic acid], for which the inhibition constant Ki (Ki bins given in nM) fell in the range of 51 to 100 nM.
In the case of `Cc1nn(C)c(C)c1-c1cccc2c(CCCOc3cccc4ccccc34)c(C(=O)Nc3cccc(C(=O)O)c3)[nH]c12` [I-193, 3-(3-(3-(naphthalen-1-yloxy)propyl)-7-(1,3,5-trimethyl-1H-pyrazol-4-yl)-1H-indole-2-carboxamido)benzoic acid], where the note is “Ki bins given in nM”, the Ki is below 50 nM.
For orientation: pKi means the Ki on a negative log10 scale, so that one unit is a factor of ten. For the molecule `Cc1cc(OCCCc2c3n(c4c(-c5c(C)nn(C)c5C)cc(Cl)cc24)CCCN(c2cc(C(=O)O)cc4c2ccn4C)C3=O)cc(C)c1Cl` [I-245, 4-(9-chloro-11-(3-(4-chloro-3,5-dimethylphenoxy)propyl)-1-oxo-7-(1,3,5-trimethyl-1H-pyrazol-4-yl)-4,5-dihydro-1H-[1,4]diazepino[1,2-a]indol-2(3H)-yl)-1-methyl-1H-indole-6-carboxylic acid], the pKi is 6.52 to 7.00.
On to `Cc1cc(OCCCc2c(C(=O)NCc3ccc(Oc4ccccc4)cc3)[nH]c3ccccc23)cc(C)c1Cl` [I-45, 3-(3-(4-chloro-3,5-dimethylphenoxy)propyl)-N-(4-phenoxybenzyl)-1H-indole-2-carboxamide], for which the Ki (Ki bins given in μM) was 10000 to 50000 nM.
In the case of `Cc1cc(OCCCc2c3n(c4c(-c5c(C)nn(C)c5C)c(Cl)ccc24)CCN(c2cc(C(=O)O)cc(N4CCOCC4)c2)C3=O)cc(C)c1Cl` [I-213, 3-(7-chloro-10-(3-(4-chloro-3,5-dimethylphenoxy)propyl)-1-oxo-6-(1,3,5-trimethyl-1H-pyrazol-4-yl)-3,4-dihydropyrazino[1,2-a]indol-2(1H)-yl)-5-morpholinobenzoic acid], the Ki (Ki bins given in nM) was below 50 nM.
Regarding `Cc1cc(OCCCc2c3n(c4c(-c5c(C)nn(C)c5C)c(Cl)ccc24)C[C@@H](C)N(Cc2ccc(C(=O)O)cn2)C3=O)cc(C)c1Cl` [I-122, (R)-6-((7-chloro-10-(3-(4-chloro-3,5-dimethylphenoxy)propyl)-3-methyl-1-oxo-6-(1,3,5-trimethyl-1H-pyrazol-4-yl)-3,4-dihydropyrazino[1,2-a]indol-2(1H)-yl)methyl)nicotinic acid], the Ki (Ki bins given in nM) is below 50 nM.
Turning to `COC(=O)CNC(=O)c1[nH]c2ccccc2c1CCCOc1cc(C)c(Cl)c(C)c1` [I-2, methyl (3-(3-(4-chloro-3,5-dimethylphenoxy)propyl)-1H-indole-2-carbonyl)glycinate], the pKi is 5.00 to 6.00.
For `Cc1cc(OCCCc2c(C(=O)Nc3ccc(C(=O)O)cc3)[nH]c3c(-c4cccnc4C)cccc23)cc(C)c1Cl` [I-37, 4-(3-(3-(4-chloro-3,5-dimethylphenoxy)propyl)-7-(2-methylpyridin-3-yl)-1H-indole-2-carboxamido)benzoic acid], the Ki (Ki bins given in nM) is below 50 nM.
As for `Cc1cc(OCCCc2c(C(=O)NCCC(=O)NS(=O)(=O)c3ccccc3)[nH]c3ccccc23)cc(C)c1Cl` [I-14, 3-(3-(4-chloro-3,5-dimethylphenoxy)propyl)-N-(3-oxo-3-(phenylsulfonamido)propyl)-1H-indole-2-carboxamide], under “Ki bins given in nM”, the Ki lay within 51 to 100 nM.
Turning to `Cc1cc(OCCCc2c(C(=O)NCCC(=O)NS(=O)(=O)c3ccccc3[N+](=O)[O-])[nH]c3ccccc23)cc(C)c1Cl` [I-20, 3-(3-(4-chloro-3,5-dimethylphenoxy)propyl)-N-(3-((2-nitrophenyl)sulfonamido)-3-oxopropyl)-1H-indole-2-carboxamide], the Ki (Ki bins given in nM) was in the range of 101 to 299 nM.
Take `Cc1cc(OCCCc2c3n(c4c(-c5c(C)nn(C)c5C)c(Cl)ccc24)CCCN(c2csc(C(=O)O)n2)C3=O)cc(C)c1Cl` [I-360, 4-(8-chloro-11-(3-(4-chloro-3,5-dimethylphenoxy)propyl)-1-oxo-7-(1,3,5-trimethyl-1H-pyrazol-4-yl)-4,5-dihydro-1H-[1,4]diazepino[1,2-a]indol-2(3H)-yl)thiazole-2-carboxylic acid]: the Ki (Ki bins given in nM) is below 50 nM.
On the same count and under the same terms, the figure for `Cc1cc(OCCCc2c3n(c4c(-c5c(C)nn(C)c5C)c(Cl)ccc24)CCN(Cc2cccc(C(=O)O)c2)C3=O)cc(C)c1Cl` [I-141, 3-((7-chloro-10-(3-(4-chloro-3,5-dimethylphenoxy)propyl)-1-oxo-6-(1,3,5-trimethyl-1H-pyrazol-4-yl)-3,4-dihydropyrazino[1,2-a]indol-2(1H)-yl)methyl)benzoic acid] is below 50 nM.
For the molecule `Cc1cc(OCCCc2c(C(=O)Nc3ccc(C(=O)NS(=O)(=O)c4ccc([N+](=O)[O-])cc4)cc3)[nH]c3c(-c4cccnc4C)cccc23)cc(C)c1Cl` [I-69, 3-(3-(4-chloro-3,5-dimethylphenoxy)propyl)-7-(2-methylpyridin-3-yl)-N-(4-(((4-nitrophenyl)sulfonyl)carbamoyl)phenyl)-1H-indole-2-carboxamide], under “Ki bins given in nM”, the Ki was 101 to 299 nM.
For the molecule `Cc1cc(OCCCc2c(C(=O)NCCc3ccccc3)[nH]c3ccccc23)cc(C)c1Cl` [I-42, 3-(3-(4-chloro-3,5-dimethylphenoxy)propyl)-N-phenethyl-1H-indole-2-carboxamide], the Ki (Ki bins given in μM) is 10000 to 50000 nM.
Consider `Cc1cc(OCCCc2c3n(c4c(-c5c(C)nn(C)c5C)c(Cl)ccc24)CCCNC3=O)cc(C)c1Cl` [I-118, 8-chloro-11-(3-(4-chloro-3,5-dimethylphenoxy)propyl)-7-(1,3,5-trimethyl-1H-pyrazol-4-yl)-2,3,4,5-tetrahydro-1H-[1,4]diazepino[1,2-a]indol-1-one], for which the Ki (Ki bins given in nM) was below 50 nM.
For `Cc1cc(OCCCc2c3n(c4c(-c5c(C)nn(C)c5C)cccc24)CCCN(Cc2ccc(-c4nnn[nH]4)cc2)C3=O)cc(C)c1Cl` [I-88, 2-(4-(1H-tetrazol-5-yl)benzyl)-11-(3-(4-chloro-3,5-dimethylphenoxy)propyl)-7-(1,3,5-trimethyl-1H-pyrazol-4-yl)-2,3,4,5-tetrahydro-1H-[1,4]diazepino[1,2-a]indol-1-one], under “Ki bins given in nM”, the Ki was below 50 nM.
The same measure, in the same setting: under `Cc1cc(OCCCc2c(C(=O)Nc3cc(Br)cc(C(=O)O)c3)[nH]c3c(-c4c(C)nn(C)c4C)c(Cl)ccc23)cc(C)c1Cl` [I-217, 3-bromo-5-(6-chloro-3-(3-(4-chloro-3,5-dimethylphenoxy)propyl)-7-(1,3,5-trimethyl-1H-pyrazol-4-yl)-1H-indole-2-carboxamido)benzoic acid] stands below 50 nM; under `Cc1cc(OCCCc2c3n(c4c(-c5c(C)nn(C)c5C)c(Cl)ccc24)CCN(Cc2ccc(C(=O)O)o2)C3=O)cc(C)c1Cl` [I-143, 5-((7-chloro-10-(3-(4-chloro-3,5-dimethylphenoxy)propyl)-1-oxo-6-(1,3,5-trimethyl-1H-pyrazol-4-yl)-3,4-dihydropyrazino[1,2-a]indol-2(1H)-yl)methyl)furan-2-carboxylic acid], below 50 nM.
The same measure, in the same setting: the figure for `COC(=O)c1cccc(CNC(=O)c2[nH]c3c(-c4c(C)n[nH]c4C)cccc3c2CCCOc2cc(C)c(Cl)c(C)c2)c1` [I-25, methyl 3-((3-(3-(4-chloro-3,5-dimethylphenoxy)propyl)-7-(3,5-dimethyl-1H-pyrazol-4-yl)-1H-indole-2-carboxamido)methyl)benzoate] is 301 to 500 nM; for `Cc1cc(OCCCc2c(C(=O)N3CCN(c4ccc(C(=O)O)cc4)CC3)n(Cc3ccncc3)c3c(-c4c(C)nn(C)c4C)c(Cl)ccc23)cc(C)c1Cl` [I-340, 4-(4-(6-chloro-3-(3-(4-chloro-3,5-dimethylphenoxy)propyl)-1-(pyridin-4-ylmethyl)-7-(1,3,5-trimethyl-1H-pyrazol-4-yl)-1H-indole-2-carbonyl)piperazin-1-yl)benzoic acid] it is 51 to 100 nM.
Same read-out and setting: the figure for `Cc1cc(OCCCc2c(C(=O)NCc3cc(Br)cc(C(=O)O)c3)[nH]c3c(-c4c(C)nn(C)c4C)c(Cl)ccc23)cc(C)c1Cl` [I-370, 3-bromo-5-((6-chloro-3-(3-(4-chloro-3,5-dimethylphenoxy)propyl)-7-(1,3,5-trimethyl-1H-pyrazol-4-yl)-1H-indole-2-carboxamido)methyl)benzoic acid] is below 50 nM; for `Cc1cc(OCCCc2c(C(=O)Nc3cc(C(=O)O)cc(N(C)C)c3)[nH]c3c(-c4c(C)nn(C)c4C)c(Cl)ccc23)cc(C)c1Cl` [I-215, 3-(6-chloro-3-(3-(4-chloro-3,5-dimethylphenoxy)propyl)-7-(1,3,5-trimethyl-1H-pyrazol-4-yl)-1H-indole-2-carboxamido)-5-(dimethylamino)benzoic acid] it is below 50 nM; for `Cc1cc(OCCCc2c(C(=O)Nc3ccc(C#N)cc3)[nH]c3c(-c4c(C)nn(C)c4C)c(Cl)ccc23)cc(C)c1Cl` [I-355, 6-chloro-3-(3-(4-chloro-3,5-dimethylphenoxy)propyl)-N-(4-cyanophenyl)-7-(1,3,5-trimethyl-1H-pyrazol-4-yl)-1H-indole-2-carboxamide] it is 51 to 100 nM.
